# Experimental data taken from article PMC11602115 (Journal of Medicinal Chemistry, 2017).
# pEC50, pIC50, pKi: −log10 of the molar value. Where two headings read alike, the source gives them in different places.
# Experiments:
# CYP 2D6 = CYP 2D6 (Homo sapiens, UniProt P10635); assay: Cytochrome P450 inhibition, CYP2D6; format: in vitro ADME
# CYP 3A4 = CYP 3A4 (Homo sapiens, UniProt P08684); assay: Cytochrome P450 inhibition, CYP3A4; format: in vitro ADME
# Plasma protein binding = format: in vitro ADME; details: across all species
# [1] = Stability in rat microsome preparations; format: in vitro ADME; details: incubation at 37 °C, rat microsomes; read-out: rat MS, T1/2
# Excerpt: (§1) Table 1 Screening Data for Selected Analogues ^a | column: human and rat MS, T1/2 (min) ^g
# MCT-induced PAH = assay: Rat monocrotaline (MCT) model of PAH, preventative oral dosing; format: in vivo, male Sprague-Dawley rats; details: for inhibition of the MCT-induced increase in RV/(LV + S): oral, twice daily for 21 days, preventative mode
# Experimental: Following anesthesia by intraperitoneal injection of 30 mg/kg pentobarbital, rats were given a subcutaneous injection of either 60 mg/kg MCT (Sigma, catalog no. C2401-1G) or 0.9% saline for the sham group. […] Hemodynamic measurements were performed with animals from the 30 mg/kg group (but not the 10 mg/kg group) anesthetized with 60 mg/kg pentobarbital. Under anesthesia, each animal was intubated with a rodent ventilator (Harvard Apparatus, model 683) at 70 breaths/min of a rate and a tidal volume of 2.5 mL in supine position on a heating pad set at 37 °C. A small opening in the apex of the right ventricle was made using a 23G needle, then a Millar catheter (Millar Instruments, Inc. model SPR-320) was placed into the right ventricle through the opening in the apex, then into the pulmonary artery (PA) for the pressure measurement. A second catheter was inserted through the […] for the measurement of mean arterial pressure. After stabilization, heart rate, mean arterial pressure, and systolic RV pressure were calculated from 20 consecutive heart beats in each rat.
# The ventricles and lungs were excised and weighed. The ratio of RV weight to left ventricle plus septum (LV + S) was calculated as an index of right ventricular hypertrophy.
# As the collection and preservation of the tissues are very resource intensive, 5 animals were selected from each group for measurement of vessel thickness; this was sufficient to obtain clear statistical differences between groups. Paraffin sections of 4 μm thickness were obtained from the lower region of the right lung and stained with hematoxylin/eosin. Analysis of the medial wall thickness of the pulmonary arterioles was performed. In brief, the external diameter and medial wall thickness were measured in 20 muscular arteries (25–100 μm external diameters) per lung section. For each artery, the medial wall thickness was expressed as follows: % wall thickness = [(external diameter – internal diameter)/external diameter] × 100. Each vessel was measured twice, perpendicularly along the long axis and short axis, and averages of both measurements were used.
# [2] = Stability in human microsome preparations; format: in vitro ADME; details: incubation at 37 °C, human microsomes; read-out: human MS, T1/2
# Excerpt: as §1
# DP1 = DP1 (Homo sapiens, UniProt Q13258); assay: Radioligand binding, DP1 ([3H]-PGD2); details: cloned human receptor; mean of two determinations
# Experimental: (§2) Additional (non-IP) receptor binding assays were carried out by MDS Pharma (Taiwan) and CEREP (France).
# EP2 = EP2 (Homo sapiens, UniProt P43116); assay: Radioligand binding, EP2 ([3H]-PGE2); design: purchased MDS Pharma (Taiwan) and CEREP (France), contract assays; details: cloned human receptor; mean of two determinations
# Experimental: as §2
# hERG channel = hERG channel (Homo sapiens, UniProt Q12809); assay: hERG patch clamp assay; format: cell-based; details: read-out: IC50 hERG channel functional activity
# CYP 1A2 = CYP 1A2 (Homo sapiens, UniProt P05177); assay: Cytochrome P450 inhibition, CYP1A2; format: in vitro ADME
# CYP 2C9 = CYP 2C9 (Homo sapiens, UniProt P11712); assay: Cytochrome P450 inhibition, CYP2C9; format: in vitro ADME
# [3] = test system: primary human pulmonary arterial smooth muscle cells; assay: HTRF cAMP assay in primary human pulmonary arterial smooth muscle cells; format: cell-based
# Experimental: Additional In Vitro Assays […]
# Compounds were also evaluated in HTRF cAMP assays using primary human pulmonary arterial smooth muscle cells (Cell Applications, Inc., #352Kq05a, or ThermoFisher/Gibco, #C0095C) using the same basic assay protocol outlined in the Experimental section. Cells were cultured as recommended by the suppliers, used at low passage and seeded into 384qwell assay plates at a density of 700q900 cell per well
# IP = IP (Homo sapiens, UniProt P43119); assay: Recombinant human IP receptor cAMP assay after elimination of receptor reserve (transient CHO); format: cell-based; design: expressed in transfected cells; details: following elimination of receptor reserve
# Excerpt: Additional In Vitro Assays
# To determine the potency and efficacy of compounds in cAMP assays in the absence of receptor reserve effects, the cDNA sequence of the human IP receptor was subqcloned into an expression plasmid containing a ubiquitin promoter in place of the more commonly used CMV promoter. The ubiquitin […]
# level of receptor expression after transfection into a suitable cell line. This plasmid was transiently transfected into CHO cells using lipofectamine, following standard protocols. The quantity of transfected plasmid DNA was titrated down from 16 µg to 1 ng per transfection using empty vector as carrier DNA.
# CYP 2C19 = CYP 2C19 (Homo sapiens, UniProt P33261); assay: Cytochrome P450 inhibition, CYP2C19; format: in vitro ADME
# CYP 2C8 = CYP 2C8 (Homo sapiens, UniProt P10632); assay: Cytochrome P450 inhibition, CYP2C8; format: in vitro ADME
# monkey IP = assay: Radioligand binding, monkey IP ([3H]-iloprost)
# Experimental: CHO-K1 cells expressing recombinant IP receptors were harvested, washed with ice-cold phosphate buffered saline, pH 7.4 (PBS), and then centrifuged at 48 000g for 20 min at 4 °C. The resulting cell pellet was then resuspended in ice-cold PBS containing 20 mM HEPES, pH 7.4, and 0.1 mM EDTA, homogenized on ice using a Brinkman Polytron, and centrifuged (48 000g for 20 min at 4 °C). This resuspension and centrifugation process was repeated one further time. Crude membrane pellets were stored at −80 °C until used for radioligand binding assays.
# Assay incubations were terminated by rapid filtration through PerkinElmer GF/C filtration plates pretreated with 0.3% PEI, under vacuum pressure using a 96-well Packard filtration apparatus, followed by multiple washes with ice-cold wash buffer (PBS containing 20 mM HEPES and 0.1 mM EDTA, pH 7.4). Plates were then dried at 45 °C for a minimum of 2 h. Finally, 25 μL of BetaScint scintillation cocktail was added to each well and plates were counted in a Packard TopCount scintillation counter. In each competition study, test compounds were dosed at 10 concentrations with triplicate determinations at each test concentration.
# EP4 = EP4 (Homo sapiens, UniProt P35408); assay: Radioligand binding, EP4 ([3H]-PGE2); design: purchased MDS Pharma (Taiwan) and CEREP (France), contract assays; details: cloned human receptor; mean of two determinations
# Experimental: as §2
# [4] = read-out: plasma protein binding
# Chain of CYP 3A4 (P08684 whole entry): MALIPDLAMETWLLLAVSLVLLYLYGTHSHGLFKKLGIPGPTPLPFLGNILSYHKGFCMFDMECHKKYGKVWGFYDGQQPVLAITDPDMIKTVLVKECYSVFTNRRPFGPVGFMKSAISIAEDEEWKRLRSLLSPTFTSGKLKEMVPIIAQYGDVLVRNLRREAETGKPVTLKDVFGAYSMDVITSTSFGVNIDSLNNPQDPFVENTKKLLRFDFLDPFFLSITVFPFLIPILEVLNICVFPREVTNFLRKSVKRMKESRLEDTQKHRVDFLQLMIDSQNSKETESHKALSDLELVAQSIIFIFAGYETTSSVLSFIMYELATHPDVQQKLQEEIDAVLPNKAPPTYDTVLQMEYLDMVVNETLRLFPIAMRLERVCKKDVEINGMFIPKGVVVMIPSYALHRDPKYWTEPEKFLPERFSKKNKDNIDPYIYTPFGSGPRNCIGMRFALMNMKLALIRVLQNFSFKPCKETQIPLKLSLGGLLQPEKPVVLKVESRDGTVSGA
# Chain of CYP 2D6 (P10635 whole entry): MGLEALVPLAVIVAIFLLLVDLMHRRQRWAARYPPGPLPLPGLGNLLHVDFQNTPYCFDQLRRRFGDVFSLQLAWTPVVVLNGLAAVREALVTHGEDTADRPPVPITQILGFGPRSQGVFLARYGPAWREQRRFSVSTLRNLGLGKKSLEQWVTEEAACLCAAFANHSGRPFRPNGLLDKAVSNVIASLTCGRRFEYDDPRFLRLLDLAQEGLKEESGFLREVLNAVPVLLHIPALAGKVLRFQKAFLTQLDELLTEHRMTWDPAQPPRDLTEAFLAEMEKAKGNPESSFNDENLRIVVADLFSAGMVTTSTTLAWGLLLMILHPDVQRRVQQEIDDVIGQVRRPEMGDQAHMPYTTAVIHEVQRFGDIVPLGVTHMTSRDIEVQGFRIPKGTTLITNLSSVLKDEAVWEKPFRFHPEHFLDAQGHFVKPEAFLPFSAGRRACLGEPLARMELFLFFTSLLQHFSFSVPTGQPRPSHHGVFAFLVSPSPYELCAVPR
# Chain of CYP 2C19 (P33261 whole entry): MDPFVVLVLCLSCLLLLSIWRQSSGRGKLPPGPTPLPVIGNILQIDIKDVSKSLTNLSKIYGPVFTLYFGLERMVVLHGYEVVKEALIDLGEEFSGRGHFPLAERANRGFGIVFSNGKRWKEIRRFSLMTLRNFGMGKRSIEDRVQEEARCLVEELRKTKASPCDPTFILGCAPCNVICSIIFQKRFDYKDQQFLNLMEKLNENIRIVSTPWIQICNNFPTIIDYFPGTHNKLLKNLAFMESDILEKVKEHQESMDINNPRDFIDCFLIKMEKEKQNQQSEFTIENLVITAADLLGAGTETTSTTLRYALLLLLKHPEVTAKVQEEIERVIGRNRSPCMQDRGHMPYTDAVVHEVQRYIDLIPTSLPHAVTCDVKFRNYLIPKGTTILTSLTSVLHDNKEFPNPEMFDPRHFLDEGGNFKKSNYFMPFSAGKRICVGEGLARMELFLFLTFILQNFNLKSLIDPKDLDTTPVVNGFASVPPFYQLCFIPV
# Chain of CYP 2C8 (P10632 whole entry): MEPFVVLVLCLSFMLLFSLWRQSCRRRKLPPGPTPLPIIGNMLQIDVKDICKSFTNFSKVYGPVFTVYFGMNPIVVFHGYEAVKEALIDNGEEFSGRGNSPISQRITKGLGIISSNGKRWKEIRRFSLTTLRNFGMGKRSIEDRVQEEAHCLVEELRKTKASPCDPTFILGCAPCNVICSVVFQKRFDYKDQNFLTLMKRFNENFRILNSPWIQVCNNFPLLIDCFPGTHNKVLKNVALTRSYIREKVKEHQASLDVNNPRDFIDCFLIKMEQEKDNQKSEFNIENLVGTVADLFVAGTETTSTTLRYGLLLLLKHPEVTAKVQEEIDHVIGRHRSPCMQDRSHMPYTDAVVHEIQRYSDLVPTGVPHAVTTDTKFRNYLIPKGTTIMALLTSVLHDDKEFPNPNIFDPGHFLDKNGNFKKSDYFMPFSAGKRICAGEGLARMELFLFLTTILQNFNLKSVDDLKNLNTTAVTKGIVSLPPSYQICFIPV
# Chain of hERG channel (Q12809 whole entry): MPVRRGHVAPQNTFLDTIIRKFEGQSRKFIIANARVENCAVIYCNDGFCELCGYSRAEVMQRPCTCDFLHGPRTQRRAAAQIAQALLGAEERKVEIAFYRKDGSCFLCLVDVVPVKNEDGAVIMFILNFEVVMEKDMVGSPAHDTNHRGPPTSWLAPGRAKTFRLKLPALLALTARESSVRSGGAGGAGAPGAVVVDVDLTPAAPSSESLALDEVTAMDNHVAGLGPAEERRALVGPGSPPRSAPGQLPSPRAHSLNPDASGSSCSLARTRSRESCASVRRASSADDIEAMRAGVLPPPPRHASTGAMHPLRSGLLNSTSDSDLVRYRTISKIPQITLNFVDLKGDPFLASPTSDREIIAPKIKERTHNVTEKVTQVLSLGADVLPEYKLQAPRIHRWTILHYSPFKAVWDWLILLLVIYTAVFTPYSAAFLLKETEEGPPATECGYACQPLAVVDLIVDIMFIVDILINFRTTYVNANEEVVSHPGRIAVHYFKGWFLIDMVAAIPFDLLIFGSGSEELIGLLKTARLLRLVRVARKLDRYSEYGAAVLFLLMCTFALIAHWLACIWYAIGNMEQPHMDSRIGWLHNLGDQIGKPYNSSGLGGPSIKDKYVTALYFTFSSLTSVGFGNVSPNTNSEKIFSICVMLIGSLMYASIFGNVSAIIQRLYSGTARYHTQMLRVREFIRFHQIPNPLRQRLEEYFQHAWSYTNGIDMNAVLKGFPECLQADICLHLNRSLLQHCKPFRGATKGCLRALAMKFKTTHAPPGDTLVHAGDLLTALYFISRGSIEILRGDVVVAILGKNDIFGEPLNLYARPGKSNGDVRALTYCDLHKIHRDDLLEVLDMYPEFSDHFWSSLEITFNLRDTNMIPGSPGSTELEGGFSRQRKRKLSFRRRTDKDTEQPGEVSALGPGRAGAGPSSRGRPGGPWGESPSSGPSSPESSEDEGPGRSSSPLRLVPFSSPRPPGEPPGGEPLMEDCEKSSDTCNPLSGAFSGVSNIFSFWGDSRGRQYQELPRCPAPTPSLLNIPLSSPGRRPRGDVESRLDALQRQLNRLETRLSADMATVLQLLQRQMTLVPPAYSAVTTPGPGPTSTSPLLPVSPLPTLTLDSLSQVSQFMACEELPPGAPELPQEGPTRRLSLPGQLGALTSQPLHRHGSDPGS
# Chain of CYP 2C9 (P11712 whole entry): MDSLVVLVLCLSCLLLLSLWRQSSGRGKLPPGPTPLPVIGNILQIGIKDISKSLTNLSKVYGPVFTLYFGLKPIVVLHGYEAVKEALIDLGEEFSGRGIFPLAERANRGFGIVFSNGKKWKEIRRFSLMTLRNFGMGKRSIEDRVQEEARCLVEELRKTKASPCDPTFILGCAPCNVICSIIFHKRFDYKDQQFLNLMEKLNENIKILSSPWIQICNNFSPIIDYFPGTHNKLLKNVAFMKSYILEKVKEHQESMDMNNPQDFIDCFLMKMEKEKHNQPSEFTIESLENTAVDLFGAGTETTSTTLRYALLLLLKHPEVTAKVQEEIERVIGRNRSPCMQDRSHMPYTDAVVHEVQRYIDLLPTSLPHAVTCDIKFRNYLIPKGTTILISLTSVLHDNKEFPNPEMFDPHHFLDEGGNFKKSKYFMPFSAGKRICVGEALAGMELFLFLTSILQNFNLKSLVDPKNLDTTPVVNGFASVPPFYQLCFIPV
# Chain of IP (P43119 whole entry): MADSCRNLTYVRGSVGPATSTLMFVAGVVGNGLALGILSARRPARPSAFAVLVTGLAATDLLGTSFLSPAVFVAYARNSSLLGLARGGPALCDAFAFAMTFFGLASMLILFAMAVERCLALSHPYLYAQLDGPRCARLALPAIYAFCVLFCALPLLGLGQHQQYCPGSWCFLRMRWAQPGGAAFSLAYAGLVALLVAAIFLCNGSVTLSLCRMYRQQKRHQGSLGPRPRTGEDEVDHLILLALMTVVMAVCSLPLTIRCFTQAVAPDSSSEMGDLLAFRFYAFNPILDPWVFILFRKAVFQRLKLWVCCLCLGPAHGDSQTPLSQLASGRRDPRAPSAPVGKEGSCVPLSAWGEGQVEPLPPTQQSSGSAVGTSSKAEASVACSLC
# Chain of CYP 1A2 (P05177 whole entry): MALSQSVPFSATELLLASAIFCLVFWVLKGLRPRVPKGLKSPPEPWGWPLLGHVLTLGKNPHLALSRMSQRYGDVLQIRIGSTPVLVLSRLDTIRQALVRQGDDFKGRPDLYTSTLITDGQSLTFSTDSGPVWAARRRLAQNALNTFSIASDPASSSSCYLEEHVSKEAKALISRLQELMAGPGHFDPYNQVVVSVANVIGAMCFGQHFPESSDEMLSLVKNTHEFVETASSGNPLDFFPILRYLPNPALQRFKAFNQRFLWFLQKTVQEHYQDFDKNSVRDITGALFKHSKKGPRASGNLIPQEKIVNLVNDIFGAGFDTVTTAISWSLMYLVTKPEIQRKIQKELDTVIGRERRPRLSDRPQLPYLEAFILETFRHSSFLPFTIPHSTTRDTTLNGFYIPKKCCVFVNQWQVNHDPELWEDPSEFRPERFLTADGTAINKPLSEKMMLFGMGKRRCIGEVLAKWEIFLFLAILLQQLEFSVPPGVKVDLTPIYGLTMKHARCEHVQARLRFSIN
# Chain of EP2 (P43116 whole entry): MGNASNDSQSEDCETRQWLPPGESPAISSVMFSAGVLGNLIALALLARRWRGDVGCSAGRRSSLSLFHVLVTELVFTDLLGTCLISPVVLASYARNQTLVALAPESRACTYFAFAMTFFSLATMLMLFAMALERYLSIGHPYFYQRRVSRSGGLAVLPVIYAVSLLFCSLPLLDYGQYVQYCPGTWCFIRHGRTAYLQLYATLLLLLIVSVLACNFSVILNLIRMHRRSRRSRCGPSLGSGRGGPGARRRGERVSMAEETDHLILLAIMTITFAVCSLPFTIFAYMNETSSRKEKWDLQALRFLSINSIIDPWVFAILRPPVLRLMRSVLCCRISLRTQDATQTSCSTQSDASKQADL
Compound,pIC50 (CYP 2D6),pIC50 (CYP 3A4),fraction unbound (Plasma protein binding; read-out: free fraction),fraction unbound (Plasma protein binding; [4]),half-life [1],inhibition of the MCT-induced increase in RV/(LV + S) (MCT-induced PAH),half-life [2],pKi (DP1),pKi (EP2),pIC50 (hERG channel),pIC50 (CYP 1A2),pIC50 (CYP 2C9),"Efficacy (% vs. Iloprost) [95% CI], primary human PASMC cAMP [3]","Efficacy (% vs. Iloprost) [95% CI], recombinant IP receptor cAMP (IP)",pIC50 (CYP 2C19),pIC50 (CYP 2C8),pKi (monkey IP),other results
"O=C(O)COC[C@H]1CC[C@H](COC(=O)N(c2ccccc2)c2ccc(Cl)cc2)CC1 [5c, Sodium 2-(((1r,4r)-4-(((4-Chlorophenyl)(phenyl)carbamoyloxy)methyl)cyclohexyl)methoxy)acetate]",< 4.30,< 4.30,0.01,~0.01,> 1 h,dose-dependent inhibition,> 1 h,5.59,6.21,< 4.52,< 4.30,< 4.30,"65 [55, 75] %","67 [64, 71] %",< 4.30,< 4.30,,"effect on hypertrophy (RV/(LV + S)) (MCT-induced PAH; 10 mg/kg oral twice daily): did not show a statistically significant effect; pulmonary vessel wall thickness (MCT-induced PAH; 30 mg/kg oral twice daily, 5 animals): significantly reduce; MCT-induced increase in pulmonary arterial pressure (mPAP) (MCT-induced PAH; 30 mg/kg oral twice daily, subset of the test group (5 animals)): significantly reduce"
"O=C(O)COC[C@H]1CC[C@H](COC(=O)N(c2ccccc2)c2cccc(F)c2)CC1 [5g, 2-(((1r,4r)-4-(((3-Fluorophenyl)(phenyl)carbamoyloxy)methyl)cyclohexyl)methoxy)acetic Acid]",< 4.30,< 4.30,0.01,~0.01,> 1 h,dose-dependent inhibition,> 1 h,5.73,6.24,< 4.52,< 4.30,< 4.30,,,< 4.30,< 4.30,8.59,pKi (EP4): 5.92
CC#CCC(C)[C@H](O)/C=C/[C@@H]1[C@H]2C/C(=C/CCCC(=O)O)C[C@H]2C[C@H]1O (stereo partly drawn) [iloprost],,,,,,,,,,,,,100%,100%,,,8.80,"pEC50 ([3]; Homo sapiens, PASMC, n = 8, read-out: EC50 [95% CI], primary human PASMC cAMP): 8.54"
